Here are results for two molecules from PMC3546729, “Electrochemical Characterization of Escherichia coli Adaptive Response Protein AidB” (International Journal of Molecular Sciences, 2012).

In assay [1] the target is T1, AidB (Escherichia coli, UniProt P33224).
T1 construct: predominantly tetramer in solution
T1 sequence (P33224 1-541): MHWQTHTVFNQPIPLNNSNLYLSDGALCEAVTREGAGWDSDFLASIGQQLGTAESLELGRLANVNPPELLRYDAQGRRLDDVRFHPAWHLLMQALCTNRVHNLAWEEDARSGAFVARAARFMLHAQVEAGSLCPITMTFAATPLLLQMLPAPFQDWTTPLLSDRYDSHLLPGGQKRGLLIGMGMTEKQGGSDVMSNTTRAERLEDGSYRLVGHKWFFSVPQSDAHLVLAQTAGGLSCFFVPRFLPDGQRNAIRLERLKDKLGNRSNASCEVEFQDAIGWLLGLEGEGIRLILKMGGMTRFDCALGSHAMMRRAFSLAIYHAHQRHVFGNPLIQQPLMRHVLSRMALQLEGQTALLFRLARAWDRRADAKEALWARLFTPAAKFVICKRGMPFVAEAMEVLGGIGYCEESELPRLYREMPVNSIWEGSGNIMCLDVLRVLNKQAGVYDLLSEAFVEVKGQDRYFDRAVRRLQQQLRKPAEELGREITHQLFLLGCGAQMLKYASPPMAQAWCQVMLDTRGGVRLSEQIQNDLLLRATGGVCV
Briefly: UV-visible spectroscopy and redox potentiometry of bound flavin. Format: binding. To be noted: bound FAD of the purified protein; pH 8.0, 300 mM NaCl, anaerobic.

Assay [2] deals with T1, AidB. Kind of assay: shift of flavin midpoint reduction potential (xanthine/xanthine oxidase redox potentiometry), two-state binding fit. To be noted: read-out: Kd^app.

SMILES strings stand for the structures.

Turning to `Cc1cc2nc3c(=O)[nH]c(=O)nc-3n(C[C@H](O)[C@H](O)[C@H](O)COP(=O)(O)OP(=O)(O)OC[C@H]3O[C@@H](n4cnc5c(N)ncnc54)[C@H](O)[C@@H]3O)c2cc1C` [FAD], on AidB [1], the “UV-visible spectroscopy and redox potentiometry of bound flavin” value is recorded as “Reduction potentials of the AidB FAD cofactor were measured using the xanthine/xanthine oxidase system”.
Regarding `CC(C)CC(=O)SCCNC(=O)CCNC(=O)[C@H](O)C(C)(C)COP(=O)(O)OP(=O)(O)OC[C@H]1O[C@@H](n2cnc3c(N)ncnc32)[C@H](O)[C@@H]1OP(=O)(O)O` [IVCoA], the Kd at AidB [2] came to 87 ± 27 µM.
